Results taken from patent US10857122B2, “Hypoestoxide, derivatives, related compounds, and agonists thereof for treatment or prevention of neurodegenerative diseases” (Immune Modulation, Inc., priority 2015, dated 2020).

Tests used:
α-syn-tg mice [1] = test: Open field and round beam behavioral tests; assay type: in vivo; conditions: 5 mg/kg IP daily for four weeks
Protocol: (§1) Five-month-old non-tg and α-syn-tg female mice were injected intra-peritoneally (IP) with either vehicle (40% captisol) or 5 mg/kg of hypoestoxide daily for four weeks. The right hemibrains were post-fixed in phosphate-buffered 4% PFA at 4° C. for neuropathological analysis, while the left hemibrains were snap-frozen and stored at −70° C. for subsequent protein and mRNA analysis.
Following treatment, the mice were assessed for gait and coordination using the open field and the round beam tests. Total activity was calculated as total beam breaks in ten minutes. The impairment of gait and balance were assessed by round beam analysis. Three consecutive trials of one minute each were run in one day. The numbers of foot slippages and distance traveled were recorded. The total errors on the beam were calculated as foot slips/distance traveled.
A positive interactive effect of HE treatment on the beam break numbers (Finteraction (1, 16)=15.61, p=0.0011) and total round beam errors (Finteraction (1, 16)=8.58, p=0.0098) was confirmed by two-way ANOVA.

α-synuclein [2] = test: Immunohistochemical and immunofluorescence analysis of α-synuclein accumulation in brain sections; assay type: in vivo, mice; conditions: 5 mg/kg IP daily for four weeks
Protocol: as §1
(§2) Blind-coded sagittal brain sections were incubated with primary antibodies at 4° C. for overnight. The next day, sections were incubated with either biotinylated- or FITC-conjugated secondary antibodies and detected with avid in D-HRP HRP (ABC elite, Vector Laboratories, Burlingame, Calif.) and with Tyramide Signal Amplification Direct system (PerkinElmer, Waltham, Mass.), respectively.
(§3) To determine the neuroinflammation, neurodegeneration, accumulation of α-synuclein, and NF-κB activation, brain sections were stained with Iba-1, GFAP, TNFα, IL-1β, IL6, human α-synuclein, NF-κB, and phosphorylated-NF-κB antibodies, respectively. Sections were imaged by Olympus BX41 microscope. All immunoreactivity levels were determined by optical density analysis using Image Quant 1.43 program (NIH) except the immunoreactivity of Iba-1. The cell numbers of Iba-1-positive cells were determined per field (230 μm×184 μm) of each animal based on cell body recognition using Image Quant 1.43 program (NIH).
To determine whether the behavioral improvements observed in the α-syn-tg mice were related to alterations of α-synuclein pathology, immunohistochemical analysis was performed for α-synuclein with brain sections from non-tg and α-syn-tg mice treated with either vehicle or HE. […]
Immunofluorescence analysis of human α-synuclein in the frontal cortex of non-tg and α-syn-tg mice treated with either vehicle or hypoestoxide was performed. […] Additionally, fluorescence intensity against human α-synuclein was analyzed in frontal cortex of the brains. Immunoreactivity against human α-synuclein was not detected in the frontal cortex of non-tg mice, but it was highly detected in the frontal cortex of α-syn-tg mice. […]

α-synuclein [3] = test: Immunoblot analysis of α-synuclein in SDS-soluble and SDS-insoluble brain homogenate fractions; assay type: in vivo; conditions: brain homogenates of α-syn-tg mice; 5 mg/kg IP daily for four weeks
Protocol: as §1
(§4) Brain homogenates were prepared in the lysis buffer to separate SDS-soluble and SDS-insoluble fractions. Chemiluminescence detection and analysis were performed using Versadoc XL imaging apparatus and Quantity One (Bio-rad, Hercules, Calif.).
FIGS. 3F-3G show the results of a biochemical analysis. Brain homogenates were separated into SDS-soluble and SDS-insoluble factions, and analyzed by immunoblot analysis. The levels of α-synuclein in SDS-soluble fractions from α-syn tg mice were not affected by HE administration. […] A positive interactive effect of HE treatment on the level of SDS-insoluble α-synuclein (Finteraction (1, 16)=8.68, p=0.0095) was confirmed by two-way ANOVA.

α-syn-tg mice [4] = test: Immunohistochemical analysis of brain immune cells (Iba-1 microglia, GFAP astrocytes) in a mouse model of PD; assay type: in vivo; conditions: 5 mg/kg IP daily for four weeks
Protocol: as §1, §2, §3
FIGS. 1A-1F show analysis of the numbers of brain immune cells.
A positive interactive effect of HE treatment on Iba-1 optical density (Finteraction (1, 16)=80.48, p<0.0001), numbers of microglia branches (Finteraction (1, 16)=83.25, p<0.0001), GFAP optical density (Finteraction (1, 16)=15.88, p=0.0011), and numbers of astroglial branches (Finteraction (1, 16)=4.04, p=0.0616) was confirmed by two-way ANOVA.

NF-κB [5] = test: Immunofluorescence analysis of NF-κB and phosphorylated-NF-κB in neocortex; assay type: in vivo, mice; conditions: 5 mg/kg IP daily for four weeks
Protocol: as §1, §2
as §3, with “(NIH). […]” for “(NIH).”

α-syn-tg mice [6] = test: Neurodegeneration analysis (TH-positive striatal fibers); assay type: in vivo; conditions: 5 mg/kg IP daily for four weeks
Protocol: as §1, §2
as §3, with “(NIH). […]” for “(NIH).”

α-syn-tg mice [7] = test: Quantitative gene expression analysis (qPCR) of pro-inflammatory cytokines; assay type: in vivo; conditions: neocortex of α-syn-tg mice; 5 mg/kg IP daily for four weeks
Protocol: as §1
(§5) Total mRNA was extracted from mice frontal cortex using RNeasy Lipid mini kit (Qiagen, Germantown, Md.) and reverse transcribed using SuperScript VILO cDNA synthesis kit (Life Technologies), respectively. Quantitative real-time PCR was performed using TaqMan® Fast Advanced Master Mix (Life Technologies) according to manufacturer's instructions with gene specific primers obtained from Life Technologies, such as TNFα (Mm00443258_m1), IL6 (Mm00446190_m1), IL-1β (Mm00434228_m1), and β-actin (Mm00607939_s1). Amplification of DNA products was measured by the StepOnePlus real-time PCR system (Applied Biosystems, Carlsbad, Calif.). Relative mRNA levels were calculated according to the 2-exp (ΔΔCt) method. All ΔCT values were normalized to β-actin.
(§6) The levels of pro-inflammatory cytokines were analyzed using immunohistochemical analysis and gene expression analysis. The levels of TNFα, IL-1ß and IL6 were increased in α-syn-tg mice compared to non-tg mice. […] A positive interactive effect of HE treatment on the levels of TNFα (Finteraction (1, 16)=12.34, p=0.0029), IL-1β (Finteraction (1, 16)=11.58, p=0.0036), and IL6 (Finteraction (1, 16)=31.06, p<0.0001) was confirmed by two-way ANOVA. […] A positive interactive effect of HE treatment on the mRNA levels of TNFα (Finteraction (1, 16)=15.78, p=0.0019), IL-1β (Finteraction (1, 16)=11.65, p=0.0051), and IL6 (Finteraction (1, 16)=6.40, p=0.0264) was confirmed by two-way ANOVA.

α-synuclein mRNA = α-synuclein mRNA levels; assay type: in vivo, mice; conditions: model of PD
Protocol: as §1, §5
Intraneuronal accumulations of α-synuclein aggregates are typical pathological features of PD. […]

NF-κB [8] = test: Western blot analysis of NF-κB in cytosolic and nuclear fractions of cortex homogenates; assay type: in vivo, mice; conditions: 5 mg/kg IP daily for four weeks
Protocol: as §1, §4
Biochemical analysis using brain homogenates from the cortex of non-tg and α-syn-tg mice was performed. Brain homogenates were separated into cytosolic and nuclear fractions by centrifugation, and each fraction was analyzed by western blot analysis. Total levels of NF-κB were not altered by HE administration in non-tg and α-syn-tg mice. […] A positive interactive effect of HE treatment on the level of phosphorylated-NF-κB (Finteraction (1, 16)=11.55, p=0.0037) was confirmed by two-way ANOVA.

α-syn-tg mice [9] = test: Immunohistochemical analysis of pro-inflammatory cytokines in a mouse model of PD; assay type: in vivo; conditions: neocortex of α-syn-tg mice; 5 mg/kg IP daily for four weeks
Protocol: as §1, §2, §3, §6

[10] = frontal cortex of α-syn-tg mice

C=C1C(=O)C[C@H]2C[C@@H]3O[C@@]3(C)CC[C@@H]3O[C@@]3(C)C[C@@H](OC(C)=O)[C@H]1C2(C)C [HE, hypoestoxide]
beam break numbers (open field test) (α-syn-tg mice [1]): reduced these errors to levels observed in non-tg mice
total round beam errors (α-syn-tg mice [1]): reduced these errors to levels observed in non-tg mice
immunoreactivity against C-terminus human α-synuclein (α-synuclein [2]; [10]): significantly decreased
level of human α-synuclein immunoreactivity (immunofluorescence) (α-synuclein [2]; [10]): significantly decreased
levels of α-synuclein in neurons and neuropil (immunohistochemical analysis) (α-synuclein [2]; α-syn-tg mice, frontal cortex, hippocampus, striatum): significantly decreased
levels of SDS-insoluble α-synuclein (α-synuclein [3]): significantly decreased
levels of α-synuclein in SDS-soluble fractions (α-synuclein [3]): not affected
levels of astrogliosis (GFAP) (α-syn-tg mice [4]; neocortex of α-syn-tg mice): significantly decreased
numbers of microglial cells (Iba-1-positive) (α-syn-tg mice [4]; neocortex of α-syn-tg mice): significantly decreased
numbers of branches per glial cell (α-syn-tg mice [4]; α-syn-tg mice): decreased
total levels of NF-κB (immunofluorescence) (NF-κB [5]; neocortex of non-tg or α-syn-tg mice): not changed
level of phosphorylated-NF-κB (immunofluorescence) (NF-κB [5]; neocortex of α-syn-tg mice): significantly decreased
loss of TH-positive striatal fibers (α-syn-tg mice [6]): significantly decreased
mRNA level of IL6 (α-syn-tg mice [7]): clearly decreased
mRNA level of IL-1β (α-syn-tg mice [7]): clearly decreased
mRNA level of TNFα (α-syn-tg mice [7]): clearly decreased
levels of α-synuclein mRNA (α-synuclein mRNA): not affected
total levels of NF-κB (western blot) (NF-κB [8]; cortex homogenates of non-tg and α-syn-tg mice): not altered
level of phosphorylated NF-κB (western blot) (NF-κB [8]; cortex homogenates of α-syn-tg mice, nuclear fractions): significantly reduced
level of IL6 (immunohistochemical analysis) (α-syn-tg mice [9]): significantly reduced
level of IL-1β (immunohistochemical analysis) (α-syn-tg mice [9]): significantly reduced
level of TNFα (immunohistochemical analysis) (α-syn-tg mice [9]): significantly reduced
